Reference: US20220040179A1, “USE OF CDK8/19 INHIBITORS FOR TREATMENT OF ESTABLISHED COLON CANCER HEPATIC METASTASIS” (University of South Carolina, priority 2017, published 2022)

Assays:
[1] = test system: CT26 cells; assay: splenic injection model, CT26 cells: spleen (primary tumor) and liver (metastatic tumor) weights; assay type: in vivo, mouse; settings: 40 mg/kg daily i.p., 16 days, BALB/c mice
Procedure: To compare the effects of CDK8/19 inhibition on primary and metastatic tumor growth, we used a splenic injection model (Lafreniere and Rosenberg, 1986; Zhang et al., 2009), where tumor cells are injected in the spleen, from where they metastasize into the liver. In the study shown in FIG. 4, 2×10^5 CT26 cells were injected into the spleens of 8 weeks old female BALB/c mice, and mice were treated by daily i.p. injection of Senexin B dichloride (40 mg/kg) in 10 mM citrate buffer, pH6, 150 mM NaCl or with vehicle control (n=9). 1 6 days later, mice were sacrificed and the weights of tumor-containing spleens (primary tumor) and livers (metastatic tumor) were measured.
Mice were sacrificed 16 days after tumor cell inoculation into the spleen and spleens and livers were weighed.

[2] = Senexin B serum concentration by LC/MS/MS in mice on medicated diet; assay type: in vivo, mouse
Procedure: (§1) We have analyzed the survival of mice after splenic injection of 2×10^5 CT26 cells into 8 week old female BALB/c mice, followed by removal of the spleen 1 minute after injection. Mice were sacrificed when paralysis, lack of movement or paleness (due to abdominal hemorrhage) occurred. […] To establish serum drug concentrations associated with therapeutic efficacy in this model, we conducted a similar survival study where Senexin B dimaleate was administered by mixing the drug into mouse food, which provides for sustained drug delivery over time. Senexin B was mixed into food at two concentrations differing approximately 4-fold and designated low-dose and high-dose. Serum samples were collected from treated mice and Senexin B in the serum was measured by a LC/MS/MS assay.

[3] = test system: CT26 cells; assay: splenic injection model, CT26 cells: timing of drug administration, liver weights two weeks after inoculation; assay type: in vivo, mouse; settings: 50 mg/kg gavage b.i.d.
Procedure: To determine if the anti-metastatic effects of CDK8/19 inhibition observed in the splenic injection model were due to the prevention of the initial establishment of hepatic metastases or growth inhibition of already-established metastases, we asked whether Senexin B can inhibit metastatic growth in the liver when the drug is administered after the metastases have been established. […] We compared the effects of Senexin B dimaleate on hepatic metastasis, when the drug was administered by gavage at 50 mg/kg doses in CD vehicle, b.i.d. two days prior to splenic inoculation, during the first week after inoculation, during the second week after inoculation, or over the entire two-week period following splenic inoculation of CT26 cells.

[4] = toxicity and body weight in mice receiving Senexin B diet; assay type: in vivo; settings: Senexin B diet relative to control diet
Procedure: as §1

[5] = test system: CT26 tumors; assay: primary CT26 tumors implanted subcutaneously in BALB/c mice; assay type: in vivo, mouse; settings: unmodified CT26 cells, female BALB/c mice; 50 mg/kg by gavage b.i.d. in CD vehicle vs vehicle
Procedure: We further investigated the effects of CDK8/19 inhibition or knockdown on the growth of primary CT26 tumors implanted subcutaneously (s.c.), at I xl 0^6 cells, in 8 weeks-old female BALB/c mice (n=I0). FIG. 3A compares the dynamics of tumor growth and final tumor weights for CT26 cells transduced with insert-free pLK0.1 (vector control) or shCDK8-1. […] FIG. 3B compares s.c. tumor growth of unmodified CT26 cells in mice treated with Senexin B dimaleate, administered by gavage at 50 mg/kg doses (weight doses calculated for Senexin B dimaleate rather than free Senexin B) in 6.25% 2-Hydroxypropyl-cyclodextrin, I % Dextrose buffer (CD vehicle), b.i.d. or with the vehicle control.

[6] = test system: human HCTl 16 colon cancer cells; assay: splenic injection model, human HCT116 cells in athymic nude mice: liver weights; assay type: in vivo; settings: 50 mg/kg by gavage b.i.d. in CD vehicle, 7 weeks after inoculation
Procedure: The splenic injection model was used to test the effect of Senexin B on hepatic metastasis of human HCTl 16 colon cancer cells, which are […] to small-molecule CDK8/19 inhibitors (Koehler et al., 2016; Pelish et al., 2015; Porter et al., 2012). 1×10^6 HCTl 16 cells were injected into the spleens of athymic nude (nu/nu) mice (JAX #002019) mice (female, 8 weeks old), and spleens were removed 1 min later. Mice were treated with Senexin B dimaleate (50 mg/kg by gavage in CD vehicle, b.i.d.) or vehicle control (n=10). 7 weeks after tumor cell inoculation, mice were sacrificed and livers with tumor metastases (FIG. 8A) were collected.

[7] = test system: CT26 cells; assay: survival of mice after splenic injection of CT26 cells followed by removal of the spleen; assay type: in vivo, mouse
Procedure: as §1

[8] = test system: CT26 colon cancer cells; assay: in vitro growth of CT26 cells; assay type: cell-based, murine; settings: 1 uM, 5-day assay
Description: To investigate the role of CDK8/19 in colon cancer growth and metastasis, we used murine CT26 colon cancer cell line, derived from a BALB/c mouse following chemical carcinogenesis (Griswold and Corbett, 1975). Cells were propagated in RPMI1640 medium with 10% Fetal Bovine Serum.

CN1CCN(C(=O)c2ccc3cc(CCNc4ncnc5ccc(C#N)cc45)ccc3c2)CC1.Cl.Cl [Senexin B dichloride]
metastatic tumor growth in the liver (liver weight, tumor area) [1]: strongly inhibited metastatic tumor growth in the liver
primary tumor growth in the spleen (spleen weight) [1]: no effect on the primary tumor growth in the spleen

CN1CCN(C(=O)c2ccc3cc(CCNc4ncnc5ccc(C#N)cc45)ccc3c2)CC1.O=C(O)/C=C\C(=O)O.O=C(O)/C=C\C(=O)O [Senexin B dimaleate]
average serum concentration ([2]; high-dose diet): 206 nM
average serum concentration ([2]; low-dose diet): 58 nM
liver metastasis (liver weight) ([3]; administered two days prior to splenic inoculation): no effect on liver metastasis
metastatic growth in the liver (liver weight) ([3]; both weeks after inoculation): equally efficient in suppressing metastatic growth in the liver
liver metastasis (liver weight) ([3]; during the first week after inoculation): decreased the liver weights but this effect did not reach statistical significance
metastatic growth in the liver (liver weight) ([3]; only the second week after inoculation): equally efficient in suppressing metastatic growth in the liver
toxicity [4]: no apparent toxicity
mouse body weight ([4]; days 8 and 15 after surgery): no significant change in mouse body weight
s.c. tumor growth [5]: not statistically significant
hepatic tumor growth (liver weights) [6]: strong inhibition of hepatic tumor growth
survival (Kaplan-Meyer) ([7]; combination: mice inoculated with shCDK8-1 cells and treated with Senexin B, 50 mg/kg gavage b.i.d.): increased the survival time even further
survival (Kaplan-Meyer), efficiency of diet ([7]; low-dose diet (drug mixed into food) compared with high-dose diet): at least as efficient as the high-dose diet
survival (Kaplan-Meyer) ([7]; mice inoculated with vector control cells, 50 mg/kg gavage b.i.d. in CD vehicle): prolonged the survival

CN1CCN(C(=O)c2ccc3cc(CCNc4ncnc5ccc(C#N)cc45)ccc3c2)CC1 [Senexin B]
in vitro growth inhibition of CT26 cells [8]: no significant growth inhibition
